Legend:
Type in all cases: cell-based, human
CaSki cells [1] = assay: Cell cycle analysis by flow cytometry, CaSki; conditions: 10 and 15 μM
Protocol: The effect of Br-ORM on cell cycle analysis was performed by flow cytometry as has described in the art. In brief, approximately 70% confluent cervical cancer cells were treated with Br-ORM (10 and 20 μM) for 24 hours. The cells were trypsinized and washed twice with ice-cold PBS (1×). The cell pellets were resuspended in 50 μL of ice cold PBS (1×) and 450 μL of cold methanol. The cells were washed twice with ice cold PBS (1×), suspended in 500 μL PBS, and incubated with 500 μL RNase (20 μg/mL final concentration) at 37° C. for 1 hour. The cells were chilled over ice for 10 minutes and stained with propidium iodide (50 μg/mL final concentration) for 1 hour and analyzed by flow cytometry (BD Accuri C6; Becton Dickinson, Mountain View, CA, USA). Data was analyzed by using Modfit software.
To examine the effect on cell cycle distribution, cervical cancer cells were treated with Br-ORM (10 and 15 μM) and analyzed by flow cytometry (FIG. 13F(i)-(ii)).

CaSki cells [2] = assay: Cell invasion assay (Matrigel / Boyden chamber), CaSki; conditions: 24 hours
Protocol: FIGS. 8A and 8B show the effect of ORM-Br on invasion of CaSki (FIG. 8A) and SiHa (FIG. 8B) cell lines in Boyden chamber and xCELLigence assay. The images represent the invaded cells of control and ORM-Br-treated CaSki and SiHa cells as determined by Boyden Chamber kit. The magnification was at 20 for the images of FIGS. 8A and 8B.
Cell invasion assay was performed using BD Biocoat Matrigel Invasion Chambers (BD Biosciences, San Jose, CA, USA), as has been described in the art. Cells were treated with Br-ORM followed by incubation for 24 hours. Cells were fixed using methanol and were stained with crystal violet. […]
FIG. 14. […] Effect of Br-ORM on cell migration of cervical cancer cells as determined by agarose bead (FIG. 14A), scratch wound healing (FIG. 14B), and Boyden chamber assay (FIG. 14C). […] Closure of wound was determined and photographed using phase contrast microscopy. […] Bar graph represent the quantification of migrated CaSki cells of control and Br-ORM treated groups (FIG. 14C(ii)). […] Effect of Br-ORM treatment on invasion of CaSki cells as determined by a commercially available kit (BD Biosciences) as described in materials and methods. In brief, 24 hours post-treatment of Br-ORM, invaded cells were fixed, stained and counted. […] Bar graph represent the quantification of invaded CaSki cells of control and Br-ORM treated groups (FIG. 14D(ii)). […]

β-catenin in CaSki cells = assay: Western blot of β-catenin in nuclear and cytoplasmic extracts, CaSki; conditions: 15 μM, 24 hours
Protocol: In the Example shown at FIGS. 9A-9E, cells were subjected to treatment with 15 μM concentration of ORM-Br for 24 hours, nuclear extracts were prepared and western blot analysis were used to detect the protein levels of β-catenin. […] Western blots were reprobed with β-actin and Histone H3 antibodies as an internal control.
The nuclear and cytoplasmic lysates were prepared using respective buffers. The cell lysates (40 μg) were subjected to SDS-PAGE and blotted on PVDF membrane. The membranes were further blocked in 5% milk diluted in 1×TBST solution for 1 hour and incubated overnight in primary antibodies. The following day, the membranes were washed and incubated with secondary antibodies for 1 hour, washed again and developed on a UVP system using chemi-luminiscent reagents.
The EMT process in a cell is driven by growth factors or other signaling proteins such as Wnt/beta-catenin and extracellular matrix component that may stimulate cellular growth and migration. The effect of Br-ORM on β-catenin signaling was examined.
FIG. 15. Effect OF Br-ORM on β-catenin signaling and molecular docking of Br-ORM with β-catenin. Effect of Br-ORM on β-catenin distribution in cytoplasm and nucleus of CaSki and SiHa cells. […] Effect of Br-ORM on β-catenin localization in CaSki cells as determined by confocal microscopy (FIG. 15B(i)-(ii)). […]

In the case of `COc1ccc2c(c1)OC(C)(C)C(c1ccc(Br)cc1)C2c1ccc(OCCN2CCCC2)cc1` (centres unmarked) [ORM-Br], the cell cycle distribution (CaSki cells [1]) is reported as “arrested cell cycle progression of CaSki and SiHa cells at G1/S phase”, the cell invasion (CaSki cells [2]) is reported as “inhibits the invasion” and the cell invasion (CaSki cells [2]; listed as Br-ORM) is reported as “effectively inhibited invasion”. The “nuclear β-catenin expression” value (β-catenin in CaSki cells) was “decrease in expression of nuclear β-catenin” and the “nuclear β-catenin expression” value (β-catenin in CaSki cells; listed as Br-ORM) was “inhibited nuclear β-catenin”.
